Measurements taken from the supplement of paper PMC10307832.

How the values were obtained:
Assay in all cases: relative viability (nuclei count vs DMSO), 5 days (fraction); higher = more cells survive
Dabrafenib + Pictilisib = compound: CC(C)(C)c1nc(-c2cccc(NS(=O)(=O)c3c(F)cccc3F)c2F)c(-c2ccnc(N)n2)s1 [Dabrafenib] + CS(=O)(=O)N1CCN(Cc2cc3nc(-c4cccc5[nH]ncc45)nc(N4CCOCC4)c3s2)CC1 [Pictilisib] (partner 1 µM)
How it was run: (§1)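 Lung cancer cell lines in 1536-well plates were dosed by pin tool the day after seeding, either with one drug alone or with a fixed anchor-drug dose plus five library-drug doses (not always all listed) in √10 steps. After 5 days, cells were fixed and their nuclei stained in one step (final 0.05% Triton X-100, 1% formaldehyde, 1 ug/ml Hoechst), then counted on 4× images. Relative viability is the nuclei count in treated wells divided by that in vehicle wells. Values are medians of duplicate plates.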

Dabrafenib + Linsitinib = compound: CC(C)(C)c1nc(-c2cccc(NS(=O)(=O)c3c(F)cccc3F)c2F)c(-c2ccnc(N)n2)s1 [Dabrafenib] + C[C@]1(O)C[C@@H](c2nc(-c3ccc4ccc(-c5ccccc5)nc4c3)c3c(N)nccn32)C1 [Linsitinib] (partner 1 µM)
How it was run: as §1

Dabrafenib + OSI-027 = compound: CC(C)(C)c1nc(-c2cccc(NS(=O)(=O)c3c(F)cccc3F)c2F)c(-c2ccnc(N)n2)s1 [Dabrafenib] + COc1cccc2cc(-c3nc([C@H]4CC[C@H](C(=O)O)CC4)n4ncnc(N)c34)[nH]c12 [OSI-027] (partner 0.5 µM)
How it was run: as §1

Dabrafenib + Tozasertib = compound: CC(C)(C)c1nc(-c2cccc(NS(=O)(=O)c3c(F)cccc3F)c2F)c(-c2ccnc(N)n2)s1 [Dabrafenib] + Cc1cc(Nc2cc(N3CCN(C)CC3)nc(Sc3ccc(NC(=O)C4CC4)cc3)n2)n[nH]1 [Tozasertib] (partner 0.1 µM)
How it was run: as §1

Cell Line	relative viability (Dabrafenib + Pictilisib; first compound 0.003 µM)	relative viability (Dabrafenib + Pictilisib; first compound 0.009487 µM)	relative viability (Dabrafenib + Pictilisib; first compound 0.03 µM)	relative viability (Dabrafenib + Pictilisib; first compound 0.09487 µM)	relative viability (Dabrafenib + Pictilisib; first compound 0.3 µM)	relative viability (Dabrafenib + Linsitinib; first compound 0.003 µM)	relative viability (Dabrafenib + Linsitinib; first compound 0.009487 µM)	relative viability (Dabrafenib + Linsitinib; first compound 0.03 µM)	relative viability (Dabrafenib + Linsitinib; first compound 0.09487 µM)	relative viability (Dabrafenib + Linsitinib; first compound 0.3 µM)	relative viability (Dabrafenib + OSI-027; first compound 0.003 µM)	relative viability (Dabrafenib + OSI-027; first compound 0.009487 µM)	relative viability (Dabrafenib + OSI-027; first compound 0.03 µM)	relative viability (Dabrafenib + OSI-027; first compound 0.09487 µM)	relative viability (Dabrafenib + OSI-027; first compound 0.3 µM)	relative viability (Dabrafenib + Tozasertib; first compound 0.003 µM)	relative viability (Dabrafenib + Tozasertib; first compound 0.009487 µM)	relative viability (Dabrafenib + Tozasertib; first compound 0.03 µM)	relative viability (Dabrafenib + Tozasertib; first compound 0.09487 µM)	relative viability (Dabrafenib + Tozasertib; first compound 0.3 µM)
CAL-12T	0.319	0.392	0.395	0.57	0.535	0.744	0.901	0.786	0.777	0.963	0.523	0.68	0.902	0.566	0.645	0.377	0.424	0.423	0.328	0.349
NCI-H2347	0.693	0.6	0.381	0.57	0.459	0.675	0.965	1.08	1.03	0.942		0.514	0.254	0.394	0.416		0.548	0.344	0.621	0.496
NCI-H1944	0.36	0.343	0.284	0.438	0.368	1.17	1.28	1.06	1.18	1.14	0.356	0.433	0.39	0.505	0.439	0.252	0.262	0.233	0.254	0.239
A-427		0.611	0.769	0.522	0.675		1.13	1	0.949	1.1		0.351	0.518	0.379	0.474		0.202	0.187	0.196	0.209
NCI-H520	0.344	0.295	0.237	0.265	0.253	1.01	0.93	0.741	0.853	1.05	0.272	0.348	0.188	0.324	0.278	0.431	0.486		0.417	0.408
ABC-1		0.86	0.823	0.778	0.822		0.81	0.841	0.892	0.861	0.442	0.42	0.496	0.537	0.507	0.215	0.244	0.206	0.132	0.174
NCI-H647		0.347		0.531	0.388		1.04	1.21	1.17	1.01	0.325	0.704	0.561	0.582	0.476	0.388	0.292	0.27	0.298	0.434
NCI-H1793	0.366	0.313	0.329	0.392	0.323	0.832	1.53	0.702	0.781	0.914		0.393			0.309		0.464			0.293
LU99A	0.336	0.268	0.342	0.299	0.266	0.542	0.532	0.484	0.476	0.476	0.282	0.307	0.29	0.339	0.268	0.258	0.287	0.255	0.277	0.306
BEN		0.58		0.52	0.687		0.986		0.883	0.938		0.332		0.305	0.269		0.563		0.412	0.501
EKVX	0.413	0.458	0.38	0.495	0.59	0.997	1.17	0.933	0.866	1.13	0.649	0.79	0.693	0.652	0.729	0.475	0.406	0.407	0.337	0.457
SK-LU-1		0.668	0.385	0.416	0.397	0.799	1	0.813	0.968	0.833		0.366	0.217	0.285	0.227		0.365	0.255	0.311	0.332
COR-L 105	0.297	0.435	0.353	0.454	0.474	0.959	0.943	0.908	0.88	1.07	0.6	0.786	0.58	0.722	0.906	0.332	0.415	0.362	0.347	0.395
SW 1573	0.501	0.474	0.454	0.426	0.505	0.827	0.844	0.722	0.792	0.821	0.463	0.61	0.525	0.623	0.548	0.284	0.233	0.191	0.19	0.241
NCI-H2087	0.38	0.819	1.08	0.728	0.703	0.979	0.862	0.779	0.805	0.638		0.541	0.682	0.622	0.454		0.306	0.254	0.302	0.264
NCI-H358		0.307	0.339	0.405	0.282		1.03	0.705	0.813	0.776	0.486	0.923	0.74	0.576	0.655	0.102	0.0949	0.0962	0.106	0.0813
NCI-H1975	0.267	0.308	0.27	0.257	0.234	1.06	1.04	0.889	0.995	0.905	0.657	0.728	0.805	0.535	0.581	0.778	0.769	0.714	0.659	0.689
HCC-15	0.595	0.851	0.654	0.797	0.725	0.851	0.996	0.917	0.821	0.951	0.547	0.695	0.67	0.53	0.622	0.602	0.506	0.355	0.398	0.386
